Measurements reported in paper PMC9403976, “Elucidating the path to Plasmodium prolyl-tRNA synthetase inhibitors that overcome halofuginone resistance” (Nature Communications, 2022).
Several values for one entry are separate records, joined by “and”; a condition that tells them apart may be missing. Equal entries are not always repeated.

Key:
[1] = target: HsProRS (Homo sapiens, UniProt P07814); assay: TR-FRET ligand displacement assay with tracer MAT379 (CoraFluor-1-Halo and anti-His6 antibody formats); format: binding; parameters: made in house; host or cells: E. coli SoluBL-21; settings: for TR-FRET dose-response, normalized signal (SI Fig 11): individual replicates; for normalized TR-FRET signal (dose-response replicates): SI Fig 15
[2] = test system: P. falciparum Dd2-2D4; assay: P. falciparum asexual blood stage (ABS) growth assay, SYBR Green, 72 h, wild-type parasites; format: cell-based, Plasmodium falciparum; settings: for parasite growth, replicate wells (Fig 1b): Dd2-2D4
[3] = test system: halofuginone-induced P. falciparum (elevated proline homeostasis); assay: P. falciparum ABS growth assay, SYBR Green, 72 h, halofuginone-induced parasites; format: cell-based, Plasmodium falciparum; settings: for parasite growth, replicate wells (Fig 1b): Halofuginone-Induced
Method in brief: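 SYBR Green 1 fluorescence after 72 h quantified growth of erythrocytic-stage Dd2 lines seeded at 1% parasitemia and 1% hematocrit. Compounds were tested in triplicate dose-response format in RPMI with 0.5% Albumax, referenced to 10 μM dihydroartemisinin and untreated wells.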

Chain of HsProRS (P07814 996-1512): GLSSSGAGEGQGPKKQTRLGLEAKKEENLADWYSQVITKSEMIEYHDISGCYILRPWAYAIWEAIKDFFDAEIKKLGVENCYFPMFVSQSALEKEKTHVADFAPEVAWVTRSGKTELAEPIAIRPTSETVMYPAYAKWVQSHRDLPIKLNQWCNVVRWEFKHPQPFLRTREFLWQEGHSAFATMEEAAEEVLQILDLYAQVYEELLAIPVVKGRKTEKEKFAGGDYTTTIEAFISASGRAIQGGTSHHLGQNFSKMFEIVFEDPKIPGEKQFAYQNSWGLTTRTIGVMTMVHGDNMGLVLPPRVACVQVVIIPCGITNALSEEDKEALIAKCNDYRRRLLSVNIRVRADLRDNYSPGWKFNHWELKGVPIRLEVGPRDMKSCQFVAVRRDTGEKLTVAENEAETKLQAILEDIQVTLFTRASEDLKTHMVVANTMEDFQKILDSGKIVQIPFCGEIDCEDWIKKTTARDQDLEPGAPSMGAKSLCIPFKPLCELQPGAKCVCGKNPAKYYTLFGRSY

Question: For `O=C(NC1Cc2ccccc2C1)c1nccnc1NC(=O)C1CCCCC1` [compound 2, reference compound], which “normalized TR-FRET ligand displacement signal, dose-response replicates (SI Fig 6)” value ([1]; Log[inhibitor] (M) -8.010) is on record?
Answer: Its value is 9.42E-01 and 1.05E+00 and 9.60E-01.

Question: And the “TR-FRET dose-response, normalized signal (SI Fig 11)” value ([1]; Log[inhibitor] (M) -8.010)?
Answer: Its value is 9.79E-01 and 9.27E-01 and 9.78E-01.

Question: And the “normalized TR-FRET ligand displacement signal, dose-response replicates (SI Fig 6)” value ([1]; Log[inhibitor] (M) -8.311)?
Answer: Its value is 1.02E+00 and 9.93E-01 and 1.06E+00.

Question: What about the “TR-FRET dose-response, normalized signal (SI Fig 11)” value ([1]; Log[inhibitor] (M) -8.311) of the same compound?
Answer: The value was 9.15E-01 and 9.66E-01 and 9.82E-01.

Question: And the “normalized TR-FRET ligand displacement signal, dose-response replicates (SI Fig 6)” value ([1]; Log[inhibitor] (M) -8.612)?
Answer: The value was 9.95E-01 and 1.01E+00 and 1.07E+00.

Question: What about the “TR-FRET dose-response, normalized signal (SI Fig 11)” value ([1]; Log[inhibitor] (M) -8.612) of the same compound?
Answer: The value was 9.61E-01 and 9.59E-01 and 9.62E-01.

Question: And the “normalized TR-FRET ligand displacement signal, dose-response replicates (SI Fig 6)” value ([1]; Log[inhibitor] (M) -8.913)?
Answer: The value was 1.02E+00 and 1.03E+00 and 9.75E-01.

Question: What about the “TR-FRET dose-response, normalized signal (SI Fig 11)” value ([1]; Log[inhibitor] (M) -8.913) of the same compound?
Answer: Its value is 9.90E-01 and 9.95E-01 and 9.69E-01.

Question: What about the “normalized TR-FRET ligand displacement signal, dose-response replicates (SI Fig 6)” value ([1]; Log[inhibitor] (M) -9.214) of the same compound?
Answer: Its value is 9.83E-01 and 1.03E+00 and 1.00E+00.

Question: What about the “TR-FRET dose-response, normalized signal (SI Fig 11)” value ([1]; Log[inhibitor] (M) -9.214) of the same compound?
Answer: Its value is 9.62E-01 and 1.02E+00 and 1.04E+00.

Question: What about the “normalized TR-FRET signal (dose-response replicates)” value (shortened to “normalized TR-FRET signal”) ([1]; Log[inhibitor] (M) -4.99976) of the same compound?
Answer: Its value is 1.25E-01 and 2.68E-01 and 1.89E-01.

Question: And the “normalized TR-FRET signal” value ([1]; Log[inhibitor] (M) -5.3009)?
Answer: Its value is 2.77E-01 and 4.13E-01 and 4.17E-01.

Question: And the “normalized TR-FRET signal” value ([1]; Log[inhibitor] (M) -5.60199)?
Answer: The value was 5.80E-01 and 6.20E-01 and 4.83E-01.

Question: And the “normalized TR-FRET signal” value ([1]; Log[inhibitor] (M) -5.90248)?
Answer: The value was 7.22E-01 and 7.32E-01 and 6.10E-01.

Question: What about the “normalized TR-FRET signal” value ([1]; Log[inhibitor] (M) -6.20323) of the same compound?
Answer: Its value is 6.14E-01 and 7.99E-01 and 9.70E-01.

Question: And the “normalized TR-FRET signal” value ([1]; Log[inhibitor] (M) -6.51347)?
Answer: The value was 9.27E-01 and 8.30E-01 and 1.04E+00.

Question: And the “normalized TR-FRET signal” value ([1]; Log[inhibitor] (M) -6.79595)?
Answer: Its value is 1.19E+00 and 9.68E-01 and 1.04E+00.

Question: And the “normalized TR-FRET signal” value ([1]; Log[inhibitor] (M) -7.10794)?
Answer: The value was 9.40E-01 and 8.31E-01 and 8.97E-01.

Question: What about the “normalized TR-FRET signal” value ([1]; Log[inhibitor] (M) -7.40526) of the same compound?
Answer: Its value is 6.74E-01 and 8.60E-01 and 9.73E-01.

Question: What about the “normalized TR-FRET signal” value ([1]; Log[inhibitor] (M) -7.7137) of the same compound?
Answer: The value was 9.61E-01 and 8.55E-01 and 9.51E-01.

Question: What about the “normalized TR-FRET signal” value ([1]; Log[inhibitor] (M) -8) of the same compound?
Answer: Its value is 9.74E-01 and 7.58E-01 and 8.90E-01.

Question: What about the “normalized TR-FRET signal” value ([1]; Log[inhibitor] (M) -8.331) of the same compound?
Answer: The value was 8.05E-01 and 1.09E+00 and 1.00E+00.

Question: What about the “normalized TR-FRET signal” value ([1]; Log[inhibitor] (M) -8.57403) of the same compound?
Answer: The value was 1.32E+00 and 1.15E+00 and 1.19E+00.

Question: What about the “normalized TR-FRET signal” value ([1]; Log[inhibitor] (M) -8.87506) of the same compound?
Answer: The value was 9.35E-01 and 9.99E-01 and 1.09E+00.

Question: And the “normalized TR-FRET signal” value ([1]; Log[inhibitor] (M) -9.17609)?
Answer: Its value is 1.03E+00 and 1.04E+00 and 1.09E+00.

Question: And the “parasite growth, replicate wells (Fig 1b)” value (“parasite growth” for short) ([2]; Log[inhibitor] (M) -5.000)?
Answer: Its value is 1.00E+00 (2×) and 0.00E+00.

Question: And the “parasite growth” value ([2]; Log[inhibitor] (M) -5.301)?
Answer: The value was 0.00E+00 (2×) and -2.00E+00.

Question: What about the “parasite growth” value ([2]; Log[inhibitor] (M) -5.602) of the same compound?
Answer: Its value is 1.00E+00 and -1.00E+00 and 2.00E+00.

Question: And the “parasite growth” value ([2]; Log[inhibitor] (M) -5.903)?
Answer: Its value is 1.70E+01 and 1.20E+01 and 1.60E+01.

Question: What about the “parasite growth” value ([2]; Log[inhibitor] (M) -6.204) of the same compound?
Answer: The value was 4.80E+01 (2×) and 4.40E+01.

Question: What about the “parasite growth” value ([2]; Log[inhibitor] (M) -6.505) of the same compound?
Answer: Its value is 8.30E+01 (2×) and 8.20E+01.

Question: What about the “parasite growth” value ([2]; Log[inhibitor] (M) -6.806) of the same compound?
Answer: The value was 1.04E+02 and 1.00E+02 and 1.01E+02.

Question: What about the “parasite growth” value ([2]; Log[inhibitor] (M) -7.107) of the same compound?
Answer: The value was 8.30E+01 and 8.10E+01 and 8.20E+01.

Question: And the “parasite growth” value ([2]; Log[inhibitor] (M) -7.408)?
Answer: The value was 8.20E+01 and 7.90E+01 and 8.10E+01.

Question: And the “parasite growth” value ([2]; Log[inhibitor] (M) -7.709)?
Answer: Its value is 9.90E+01 and 8.20E+01 and 1.00E+02.

Question: What about the “parasite growth” value ([2]; Log[inhibitor] (M) -8.010) of the same compound?
Answer: The value was 9.50E+01 and 1.05E+02 and 1.00E+02.

Question: What about the “parasite growth” value ([2]; Log[inhibitor] (M) -8.311) of the same compound?
Answer: Its value is 8.90E+01 and 1.00E+02 and 9.90E+01.

Question: And the EC50 ([2]; Plasmodium falciparum, DD2, SI Fig 16b, values on -log scale, read-out: ABS - Dd2-2D4 (converted))?
Answer: The EC50 was 596 nM.

Question: And the “parasite growth” value ([3]; Log[inhibitor] (M) -5.000)?
Answer: The value was 1.00E+00.

Question: And the “parasite growth” value ([3]; Log[inhibitor] (M) -5.408)?
Answer: The value was 2.00E+00.

Question: What about the “parasite growth” value ([3]; Log[inhibitor] (M) -5.816) of the same compound?
Answer: The value was 2.40E+01 (2×) and 2.50E+01.

Question: And the “parasite growth” value ([3]; Log[inhibitor] (M) -6.222)?
Answer: The value was 9.70E+01 and 1.00E+02 and 9.90E+01.

Question: And the “parasite growth” value ([3]; Log[inhibitor] (M) -6.638)?
Answer: The value was 1.00E+02 and 1.02E+02 and 1.04E+02.

Question: What about the “parasite growth” value ([3]; Log[inhibitor] (M) -7.046) of the same compound?
Answer: The value was 1.00E+02 and 9.10E+01 and 1.03E+02.

Question: And the “parasite growth” value ([3]; Log[inhibitor] (M) -7.450)?
Answer: The value was 9.40E+01 and 9.70E+01 and 9.80E+01.

Question: And the “parasite growth” value ([3]; Log[inhibitor] (M) -7.854)?
Answer: The value was 9.70E+01 (2×) and 1.00E+02.

Question: What about the “parasite growth” value ([3]; Log[inhibitor] (M) -8.260) of the same compound?
Answer: Its value is 1.00E+02 and 9.20E+01 and 9.80E+01.

Question: What about the “parasite growth” value ([3]; Log[inhibitor] (M) -8.699) of the same compound?
Answer: Its value is 9.70E+01 (2×) and 9.80E+01.

Question: And the “parasite growth” value ([3]; Log[inhibitor] (M) -9.000)?
Answer: Its value is 1.00E+02 and 9.60E+01 and 9.80E+01.

Question: What about the “parasite growth” value ([3]; Log[inhibitor] (M) -9.488) of the same compound?
Answer: Its value is 9.80E+01 (2×) and 9.90E+01.

Question: What about the “dose-response value, Replicates 1-3 (SI Fig 2e)” value ([3]; Log[inhibitor] (M) -5.000) of the same compound?
Answer: Its value is 1.0.

Question: And the “dose-response value, Replicates 1-3 (SI Fig 2e)” value ([3]; Log[inhibitor] (M) -5.408)?
Answer: Its value is 2.0.
